This is an account of results in PubChem BioAssay AID256 (DTP/NCI, 2004).

This experiment deals with CD2F1 mice, L1210 leukemia ip, survival T/C. Briefly: NCI In Vivo Anticancer Drug Screen. Data for tumor model L1210 Leukemia (intraperitoneal) in CD2F1 (CDF1) mice. The conditions noted are these: higher = longer survival. The procedure, abridged: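 In this screen, transplantable tumors were grown in mice given either the compound or its vehicle. Results were expressed as the treated measurement relative to the control measurement.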

Setting [1] is: endpoint: mean survival time, dose: 100.0 mg/kg/injection, schedule: Q01DX009 (ip), vehicle: saline with Tween-80.
Setting [2] is: endpoint: mean survival time, dose: 200.0 mg/kg/injection, schedule: Q01DX009 (ip), vehicle: saline with Tween-80.
[3] abbreviates: endpoint: mean survival time, dose: 400.0 mg/kg/injection, schedule: Q01DX009 (ip), vehicle: saline with Tween-80.
Where [4] appears, read: endpoint: mean survival time, dose: 100.0 mg/kg/injection, schedule: Q04DX003 (ip), vehicle: saline with Tween-80.
[5] abbreviates: endpoint: mean survival time, dose: 200.0 mg/kg/injection, schedule: Q04DX003 (ip), vehicle: saline with Tween-80.
Setting [6] is: endpoint: mean survival time, dose: 400.0 mg/kg/injection, schedule: Q04DX003 (ip), vehicle: saline with Tween-80.
Where [7] appears, read: endpoint: mean survival time, dose: 25.0 mg/kg/injection, schedule: Q01DX009 (ip), vehicle: saline with Tween-80.
Where [8] appears, read: endpoint: mean survival time, dose: 50.0 mg/kg/injection, schedule: Q01DX009 (ip), vehicle: saline with Tween-80.

Values joined by “and” are separate entries in the source; they are usually repeats but may differ in a detail not shown here. Equal values may be shown once. Toxic doses and inconclusive results are not listed.

With `Cc1cc(=O)oc2cc(OC(=O)C(CCCCN)NC(=O)OCc3ccccc3)ccc12` (stereo not drawn), the T/C by setting is: (endpoint: mean survival time, dose: 12.5 mg/kg/injection, schedule: Q01DX009 (ip), vehicle: other) 107 % of control; (endpoint: mean survival time, dose: 25.0 mg/kg/injection, schedule: Q01DX009 (ip), vehicle: other) 106 % of control; (endpoint: mean survival time, dose: 50.0 mg/kg/injection, schedule: Q01DX009 (ip), vehicle: other) 107 % of control; (endpoint: mean survival time, dose: 100.0 mg/kg/injection, schedule: Q01DX009 (ip), vehicle: other) 101 % of control.

Consider `CCCCCCCC(=O)Nc1cc(C(F)(F)F)ccc1Cl`, for which the T/C under setting [1] is 93 % of control, the T/C under setting [2] was 96 % of control and the T/C under setting [3] was 94 % of control.

On to `Clc1ccc2c(c1)[N-]c1ccccc1S2.Clc1ccc2c(c1)[N-]c1ccccc1S2.[Cl][Pt+2][Cl]`, for which the T/C runs as follows: (endpoint: mean survival time, dose: 3.8 mg/kg/injection, schedule: Q04DX003 (ip), vehicle: saline with Tween-80) 102 % of control; (endpoint: mean survival time, dose: 7.5 mg/kg/injection, schedule: Q04DX003 (ip), vehicle: saline with Tween-80) 102 % of control; (endpoint: mean survival time, dose: 15.0 mg/kg/injection, schedule: Q04DX003 (ip), vehicle: saline with Tween-80) 90 % of control; (endpoint: mean survival time, dose: 30.0 mg/kg/injection, schedule: Q04DX003 (ip), vehicle: saline with Tween-80) 94 % of control; (endpoint: mean survival time, dose: 60.0 mg/kg/injection, schedule: Q04DX003 (ip), vehicle: saline with Tween-80) 90 % of control.

Regarding `COC1=C(C)C(=O)c2c(c(COC(N)=O)c3n2CCC3OC(N)=O)C1=O` (stereo not drawn), the T/C is, setting by setting: (endpoint: mean survival time, dose: 1.25 mg/kg/injection, schedule: Q01DX001 (ip), vehicle: distilled water + Tween-80) 108 % of control; (endpoint: mean survival time, dose: 1.5 mg/kg/injection, schedule: Q01DX001 (ip), vehicle: distilled water + Tween-80) 114 % of control; (endpoint: mean survival time, dose: 2.5 mg/kg/injection, schedule: Q01DX001 (ip), vehicle: distilled water + Tween-80) 120 % of control; (endpoint: mean survival time, dose: 3.0 mg/kg/injection, schedule: Q01DX001 (ip), vehicle: distilled water + Tween-80) 118 % of control; (endpoint: mean survival time, dose: 5.0 mg/kg/injection, schedule: Q01DX001 (ip), vehicle: distilled water + Tween-80) 117 % of control; (endpoint: mean survival time, dose: 6.0 mg/kg/injection, schedule: Q01DX001 (ip), vehicle: distilled water + Tween-80) 116 % of control. Also, the T/C reads like this: (endpoint: mean survival time, dose: 10.0 mg/kg/injection, schedule: Q01DX001 (ip), vehicle: distilled water + Tween-80) 115 % of control; (endpoint: mean survival time, dose: 12.0 mg/kg/injection, schedule: Q01DX001 (ip), vehicle: distilled water + Tween-80) 122 % of control.

As to `Cc1ccc(N=Nc2c(N)nc(N)[nH]c2=O)cc1C`, the T/C is 97 % of control under setting [1], 97 % of control under setting [2] and 99 % of control under setting [3].

As to `Cc1cc(=O)[nH]c(O)c1C#N`, the T/C reads like this: under setting [4], 96 % of control; under setting [5], 94 % of control; under setting [6], 94 % of control.

As for `COC(=O)CCC(=O)Nc1ccccc1C(C)=O`, the T/C is 101 % of control under setting [1], 104 % of control under setting [2] and 106 % of control under setting [3].

For `O=S(=O)(O)C(S(=O)(=O)O)S(=O)(=O)O`, the T/C by setting is: under setting [4], 96 % of control; under setting [5], 97 % of control; under setting [6], 93 % of control.

Take `COc1ccc(CC(=O)NCCc2ccc3c(c2)OCO3)cc1`: the T/C is 91 % of control (endpoint: mean survival time, dose: 100.0 mg/kg/injection, schedule: Q01DX001 (ip), vehicle: saline with Tween-80) and 87 % of control (endpoint: mean survival time, dose: 200.0 mg/kg/injection, schedule: Q01DX001 (ip), vehicle: saline with Tween-80).

For `N#CN=C(N)NC(=O)c1ccccc1`, the T/C runs as follows: under setting [4], 102 % of control; under setting [5], 98 % of control.

For `COc1ccn(C2OCCC(OC(C)=O)C2O)c(=O)n1` (stereo not drawn), the T/C is 107 % of control (endpoint: median survival time, dose: 12.5 mg/kg/injection, schedule: Q01DX005 (ip), vehicle: alkali diluted with saline); 120 % of control (endpoint: median survival time, dose: 25.0 mg/kg/injection, schedule: Q01DX005 (ip), vehicle: alkali diluted with saline); 120 % of control (endpoint: median survival time, dose: 50.0 mg/kg/injection, schedule: Q01DX005 (ip), vehicle: alkali diluted with saline); 102 % of control (endpoint: median survival time, dose: 100.0 mg/kg/injection, schedule: Q01DX005 (ip), vehicle: alkali diluted with saline); 109 % of control (endpoint: median survival time, dose: 200.0 mg/kg/injection, schedule: Q01DX005 (ip), vehicle: alkali diluted with saline).

Turning to `ClCCCN1CCN(CCCl)CC1`, the T/C is 113 % of control and 115 % of control (endpoint: median survival time, dose: 2.5 mg/kg/injection, schedule: Q01DX009 (ip), vehicle: saline); 155 % of control and 177 % of control and 209 % of control (endpoint: median survival time, dose: 10.0 mg/kg/injection, schedule: Q01DX009 (ip), vehicle: saline); 109 % of control (endpoint: median survival time, dose: 20.0 mg/kg/injection, schedule: Q01DX009 (ip), vehicle: saline); 88 % of control and 90 % of control (endpoint: median survival time, dose: 40.0 mg/kg/injection, schedule: Q01DX009 (ip), vehicle: saline).

With `CC(=O)Nc1ccc(N=NN(C)C)cc1`, the T/C runs as follows: (endpoint: mean survival time, dose: 4.68 mg/kg/injection, schedule: Q01DX009 (ip), vehicle: Klucel (hydroxypropylcellulose) (HPC)) 106 % of control and 109 % of control; (endpoint: mean survival time, dose: 9.37 mg/kg/injection, schedule: Q01DX009 (ip), vehicle: Klucel (hydroxypropylcellulose) (HPC)) 114 % of control and 116 % of control.

For the molecule `NC(=O)c1csc(C2OC(COP(=O)(O)O)C(O)C2O)n1` (stereo not drawn), the T/C (endpoint: mean survival time, dose: 200.0 mg/kg/injection, schedule: Q01DX005 (ip), vehicle: water) is 259 % of control; the T/C (endpoint: mean survival time, dose: 400.0 mg/kg/injection, schedule: Q01DX005 (ip), vehicle: water) was 155 % of control and 183 % of control; the T/C (endpoint: mean survival time, dose: 600.0 mg/kg/injection, schedule: Q01DX005 (ip), vehicle: water) was 160 % of control; the T/C (endpoint: mean survival time, dose: 800.0 mg/kg/injection, schedule: Q01DX005 (ip), vehicle: water) is 196 % of control.

As to `O/N=C1\c2ccccc2-c2ccc(F)cc21`, the T/C (endpoint: mean survival time, dose: 50.0 mg/kg/injection, schedule: Q01DX001 (ip), vehicle: carboxymethylcellulose (CMC)) was 104 % of control; the T/C (endpoint: mean survival time, dose: 100.0 mg/kg/injection, schedule: Q01DX001 (ip), vehicle: carboxymethylcellulose (CMC)) was 108 % of control; the T/C (endpoint: mean survival time, dose: 200.0 mg/kg/injection, schedule: Q01DX001 (ip), vehicle: carboxymethylcellulose (CMC)) was 104 % of control; the T/C (endpoint: mean survival time, dose: 400.0 mg/kg/injection, schedule: Q01DX001 (ip), vehicle: carboxymethylcellulose (CMC)) is 102 % of control.

For `O=C(CCCl)Oc1c(Cl)c(Cl)c(Cl)c(Cl)c1Cl`, the T/C under setting [1] is 92 % of control.

Take `O=C1C=C(O)c2ccccc2C1=O.[Ag]`: the T/C is 97 % of control (endpoint: mean survival time, dose: 12.5 mg/kg/injection, schedule: Q01DX001 (ip), vehicle: saline with Tween-80) and 93 % of control (endpoint: mean survival time, dose: 25.0 mg/kg/injection, schedule: Q01DX001 (ip), vehicle: saline with Tween-80).

For the molecule `CC1=C/C(=C/c2ccccc2)CC(C)(C)C1` (tested in a mixture with another compound), the T/C is 105 % of control under setting [7], 103 % of control under setting [8], 95 % of control under setting [1] and 100 % of control under setting [4].

As to `O=C1CSC(=S)N1/N=C/c1ccc(F)cc1`, the T/C by setting is: (endpoint: mean survival time, dose: 75.0 mg/kg/injection, schedule: Q01DX001 (ip), vehicle: other) 100 % of control; (endpoint: mean survival time, dose: 150.0 mg/kg/injection, schedule: Q01DX001 (ip), vehicle: other) 102 % of control; (endpoint: mean survival time, dose: 300.0 mg/kg/injection, schedule: Q01DX001 (ip), vehicle: other) 98 % of control.

Turning to `CC1CNC(=S)O1` (stereo not drawn), the T/C was 102 % of control under setting [7]; 100 % of control under setting [8]; 97 % of control and 103 % of control under setting [1]; 100 % of control under setting [4]; 97 % of control and 95 % of control under setting [2]; 97 % of control under setting [5]. Besides, the T/C was 97 % of control and 106 % of control under setting [3]; 103 % of control under setting [6].
